The source of these data is patent publication US9878982B2, “Pyridine derivatives and anti-mycobacterial use thereof” (priority 2014, dated 2018).

Usually IC50 stands for the point on the concentration scale where inhibition reaches its midpoint. As a reminder, the CC50 is the concentration giving 50% cytotoxicity.

Structures are written as SMILES. In brackets after ≈: the same amount, converted by molar mass. Like-named read-outs stand apart in the source and are kept apart here.

Data set [1] relates to Mycobacterium smegmatis strain ATCC19420. In words: In vitro efficacy test using Mycobacterium smegmatis strain ATCC19420 (MIC). It is filed as cell-based. The following applies: Mycolicibacterium smegmatis, ATCC19420, 72 h, CA-MHB + 0.02% Tween 80, 30° C., read after 72 hours.
Data set [2] concerns M. tuberculosis H37Rv. The data set is described as follows: In vitro efficacy test using the H37Rv strain, Microplate Alamar Blue Assay (MABA) MIC. It is filed as cell-based, Mycobacterium tuberculosis. Conditions: for MIC: Mycobacterium tuberculosis, H37RV. For orientation: Alamar Blue is a resazurin reagent that responds to reducing activity.
Data set [3] deals with M. tuberculosis H37R. The data set is described as follows: microbe, parasite or virus in culture. It is filed as cell-based, Mycobacterium tuberculosis. The following applies: Mycobacterium tuberculosis, H37R; read-out: M. tuberculosis H37R LORA (MIC).
The subject of data set [4] is Vero Cell. The data set is described as follows: Vero cell cytotoxicity (IC50). It is filed as cell-based. The following applies: Chlorocebus sabaeus, Vero, African green monkey kidney cells.
A short description of data set [5]: Hela cell cytotoxicity (CC50). The following applies: human, HeLa cells (human cervical cancer cells), CC50_Hela, half of the toxic concentration.
Setting [6] is: aerobic, 7H9 medium, Alamar Blue, read-out: M. tuberculosis H37Rv MABA (MIC).

Turning to `COc1ncc(-c2ccc(Br)cc2)cc1C(c1ccccc1)C(O)(CCN(C)C)c1cccc2ccccc12` (stereo not shown) [Compound 133, 1-(5-(4-bromophenyl)-2-methoxypyridin-3-yl)-4-(dimethylamino)-2-(naphthalen-1-yl)-1-phenylbutan-2-ol], the MIC worked out at 0.0156 µg/mL in data set [1]; 0.22 µg/mL in data set [2] (setting [6]); 0.12 µM in data set [2] (wild-type H37Rv strain, two values per compound, read-out: MABA MIC vs. H37Rv); 0.22 µg/mL (≈ 0.378 µM) in data set [3]. Besides, the “inhibitory activity against M. tuberculosis H37Rv, aerobic (MABA) (in words)” value in data set [2] is on record as “comparable to that of the marketed anti-TB drug, Bedaquiline”. Further, the “MABA MIC vs. H37Rv” value in data set [2] (wild-type H37Rv strain, two values per compound) stood at 0.10 µM. Also, in data set [4], the IC50 is more than 32 µg/mL. This compound displayed a CC50 in data set [5] of more than 64 µg/mL.

On to `COc1ncc(-c2ccsc2)cc1C(c1ccccc1)C(O)(CCN(C)C)c1cccc2ccccc12` (stereo not shown) [Compound 136, 4-(dimethylamino)-1-(2-methoxy-5-(thiophen-3-yl)pyridin-3-yl)-2-(naphthalen-1-yl)-1-phenylbutan-2-ol], for which the values for the MIC in data set [1], in data set [2] (setting [6]) and in data set [3] were 0.0312 µg/mL, 0.35 µg/mL and 0.79 µg/mL (≈ 1.55 µM), respectively. Also, the 50% inhibitory concentration (IC50) in data set [4] is more than 50 µg/mL. The compound further yielded a CC50 in data set [5] of more than 64 µg/mL.

Turning to `COc1ncc(-c2cccs2)cc1C(c1ccccc1)C(O)(CCN(C)C)c1cccc2ccccc12` (stereo not shown) [Compound 141, 4-(dimethylamino)-1-(2-methoxy-5-(thiophen-2-yl)pyridin-3-yl)-2-(naphthalen-1-yl)-1-phenylbutan-2-ol], the MIC in data set [1] was not above 0.0625 µg/mL; in data set [2] (setting [6]), 0.93 µg/mL; in data set [3], 1.44 µg/mL (≈ 2.83 µM). The IC50 in data set [4] stood at 24.4 µg/mL (≈ 47.9 µM). In data set [5], this compound returned a CC50 of more than 64 µg/mL.

`COc1ncc(-c2ccsn2)cc1C(c1ccccc1)C(O)(CCN(C)C)c1cccc2ccccc12` (stereo not shown) [Compound 145, 4-(dimethylamino)-1-(5-(isothiazol-3-yl)-2-methoxypyridin-3-yl)-2-(naphthalen-1-yl)-1-phenylbutan-2-ol]: the MIC in data set [1] turned out to be 0.0625 µg/mL; in data set [2] (setting [6]), 0.97 µg/mL; in data set [3] it was 1.57 µg/mL (≈ 3.08 µM). In data set [4], this compound came in with an IC50 of 25.1 µg/mL (≈ 49.2 µM). Also, the CC50 in data set [5] was 12.7 µg/mL (≈ 24.8 µM).

Regarding `COc1ncc(-c2cccc(C#N)c2)cc1C(c1ccccc1)C(O)(CCN(C)C)c1cccc2ccccc12` (stereo not shown) [Compound 153, 3-(5-(4-(dimethylamino)-2-hydroxyl-2-(naphthalen-1-yl)-1-phenylbutyl)-6-methoxypyridin-3-yl)-benzonitrile], the MIC in data set [1] was 0.25 µg/mL; in data set [2] (setting [6]), 0.96 µg/mL; in data set [3], 2.54 µg/mL (≈ 4.81 µM). This compound showed an IC50 in data set [4] of more than 32 µg/mL. Also, in data set [5], the CC50 is more than 64 µg/mL.

With `COc1ncc(-c2ccc(C#N)cc2)cc1C(c1ccccc1)C(O)(CCN(C)C)c1cccc2ccccc12` (stereo not shown) [Compound 157, 4-(5-(4-(dimethylamino)-2-hydroxyl-2-(naphthalen-1-yl)-1-phenylbutyl)-6-methoxypyridin-3-yl)-benzonitrile], the figures for the MIC in data set [1], in data set [2] (setting [6]) and in data set [3] were 0.0312 µg/mL, 0.44 µg/mL and 0.77 µg/mL (≈ 1.46 µM), respectively. The same compound registered an IC50 in data set [4] of more than 32 µg/mL. This compound had a 50% cytotoxic concentration (CC50) in data set [5] of more than 64 µg/mL.

Turning to `COc1ncc(-c2cscn2)cc1C(c1ccccc1)C(O)(CCN(C)C)c1cccc2ccccc12` (stereo not shown) [Compound 161, 4-(dimethylamino)-1-(2-methoxy-5-(thiazol-4-yl)pyridin-3-yl)-2-(naphthalen-1-yl)-1-phenylbutan-2-ol], the figures for the MIC in data set [1], in data set [2] (setting [6]) and in data set [3] were 0.125 µg/mL, 1.6 µg/mL and 4.24 µg/mL (≈ 8.32 µM), respectively. Moreover, half-maximal inhibition in data set [4] (IC50) was put at 25.1 µg/mL (≈ 49.1 µM). In data set [5], this compound registered a CC50 of 14.4 µg/mL (≈ 28.3 µM).

On to `COc1ncc(-c2cnsc2)cc1C(c1ccccc1)C(O)(CCN(C)C)c1cccc2ccccc12` (stereo not shown) [Compound 165, 4-(dimethylamino)-1-(5-(isothiazol-4-yl)-2-methoxypyridin-3-yl)-2-(naphthalen-1-yl)-1-phenylbutan-2-ol], for which the MIC in data set [1] was determined as 0.25 µg/mL; in data set [2] (setting [6]), 1.98 µg/mL; in data set [3] it was 3.94 µg/mL (≈ 7.73 µM). The IC50 in data set [4] worked out at 26.3 µg/mL (≈ 51.6 µM). Moreover, in data set [5], the CC50 came to 28.8 µg/mL (≈ 56.5 µM).
